Laboratory results: PubChem BioAssay (NCI)
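GI50 is the concentration that inhibits growth by half. TGI: total growth inhibition.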

Experiments:
Assay in all cases: DTP human tumour cell line panel, 384-well format
[1] = tested on: SF-295 CNS
[2] = tested on: RXF 393 renal
[3] = tested on: SK-MEL-28 melanoma
[4] = tested on: BT-549 breast
[5] = tested on: LOX IMVI melanoma
[6] = tested on: HCT-116 colon
[7] = tested on: UACC-62 melanoma
[8] = tested on: SF-539 CNS
[9] = tested on: SK-MEL-2 melanoma
[10] = tested on: NCI-H322M lung
[11] = tested on: TK-10 renal
[12] = tested on: HCC-2998 colon
[13] = tested on: U251 glioblastoma
[14] = tested on: SR leukemia
[15] = tested on: OVCAR-5 ovarian
[16] = tested on: CCRF-CEM leukemia
[17] = tested on: NCI/ADR-RES ovarian
[18] = tested on: A549 NSCLC
[19] = tested on: A498 renal
[20] = tested on: T-47D breast
[21] = tested on: SK-MEL-5 melanoma
[22] = tested on: SF-268 CNS
[23] = tested on: OVCAR-3 ovarian
[24] = tested on: 786-0 renal
[25] = tested on: HOP-92 NSCLC
[26] = tested on: HOP-62 NSCLC
[27] = tested on: MDA-MB-468 breast
[28] = tested on: UO-31 renal
[29] = tested on: K-562 leukemia
[30] = tested on: PC-3 prostate
[31] = tested on: HCT-15 colon
[32] = tested on: CAKI-1 renal
[33] = tested on: KM12 colon
[34] = tested on: UACC-257 melanoma
[35] = tested on: RPMI-8226 leukemia
[36] = tested on: SN12C renal
[37] = tested on: DU-145 prostate
[38] = tested on: SK-OV-3 ovarian
[39] = tested on: SNB-19 CNS
[40] = tested on: MDA-MB-435 melanoma
[41] = tested on: NCI-H460 NSCLC
[42] = tested on: MALME-3M melanoma
[43] = tested on: NCI-H226 lung
[44] = tested on: SW-620 colon
[45] = tested on: MDA-MB-231 breast
[46] = tested on: HL-60(TB) leukemia
[47] = tested on: MOLT-4 leukemia
[48] = tested on: ACHN renal
[49] = tested on: NCI-H522 lung
[50] = tested on: HT29 colon
[51] = tested on: M14 melanoma
[52] = tested on: NCI-H23 lung
[53] = tested on: COLO 205 colon
[54] = tested on: MCF7 breast
[55] = tested on: OVCAR-8 ovarian
[56] = tested on: IGROV1 ovarian
[57] = tested on: OVCAR-4 ovarian

`COc1cc2c(Oc3ccc(-c4cnc(Nc5ccc(F)cc5)n(C)c4=O)cc3F)ccnc2cc1OCCCN1CCOCC1` was tested, and the GI50 [1] was 0.439 µM, the TGI [1] was 1.64 µM and the GI50 [2] was 0.189 µM. For the same compound, the TGI [2] was 0.541 µM, the GI50 [3] was 0.258 µM and the TGI [3] was 0.923 µM. It also gave a GI50 [4] of 0.684 µM, a TGI [4] of 1.87 µM and a GI50 [5] of 0.402 µM. For the same compound, the TGI [5] was 1.45 µM, the GI50 [6] was 0.704 µM and the TGI [6] was 2 µM. For the same compound, the GI50 [7] was 0.288 µM, the TGI [7] was 1.25 µM and the GI50 [8] was 0.257 µM. For the same compound, the TGI [8] was 1.15 µM, the GI50 [9] was 0.495 µM and the TGI [9] was 1.51 µM. The GI50 [10] was 0.761 µM, the TGI [10] was 2.02 µM and the GI50 [11] was 1.16 µM. For the same compound, the TGI [11] was 2.4 µM, the GI50 [12] was 1.17 µM and the TGI [12] was 2.4 µM. It also gave a GI50 [13] of 1.14 µM, a TGI [13] of 2.36 µM and a GI50 [14] of 0.513 µM. For the same compound, the TGI [14] was 1.68 µM, the GI50 [15] was 0.811 µM and the TGI [15] was 2.05 µM. It also gave a GI50 [16] of 1.07 µM, a TGI [16] of 2.26 µM and a GI50 [17] of 1.18 µM. It also gave a TGI [17] of 2.41 µM, a GI50 [18] of 0.572 µM and a TGI [18] of 1.8 µM. The GI50 [19] was 1.24 µM, the TGI [19] was 2.5 µM and the GI50 [20] was 1.07 µM. The TGI [20] was 2.26 µM, the GI50 [21] was 0.329 µM and the TGI [21] was 1.5 µM. For the same compound, the GI50 [22] was 1.16 µM, the TGI [22] was 2.39 µM and the GI50 [23] was 0.804 µM. It also gave a TGI [23] of 2.04 µM, a GI50 [24] of 1.24 µM and a TGI [24] of 2.49 µM. The GI50 [25] was 0.0764 µM, the TGI [25] was 0.452 µM and the GI50 [26] was 1.31 µM. For the same compound, the TGI [26] was 2.59 µM, the GI50 [27] was 1.54 µM and the TGI [27] was 2.87 µM. It also gave a GI50 [28] of 0.409 µM, a TGI [28] of 1.43 µM and a GI50 [29] of 0.0107 µM. For the same compound, the TGI [29] was 0.0234 µM, the GI50 [30] was 1.52 µM and the TGI [30] was 2.86 µM. For the same compound, the GI50 [31] was 0.792 µM, the TGI [31] was 2.03 µM and the GI50 [32] was 0.368 µM. For the same compound, the TGI [32] was 1.41 µM, the TGI [33] was 0.308 µM and the GI50 [34] was 0.252 µM. It also gave a TGI [34] of 1.09 µM, a GI50 [35] of 0.545 µM and a TGI [35] of 1.74 µM. For the same compound, the GI50 [36] was 0.247 µM, the TGI [36] was 1.29 µM and the GI50 [37] was 1.47 µM. The TGI [37] was 2.8 µM, the GI50 [38] was 0.68 µM and the TGI [38] was 1.99 µM. The GI50 [39] was 1.26 µM, the TGI [39] was 2.52 µM and the GI50 [40] was 0.384 µM. It also gave a TGI [40] of 1.39 µM, a GI50 [41] of 0.526 µM and a TGI [41] of 1.79 µM. The GI50 [42] was 0.14 µM, the TGI [42] was 0.453 µM and the GI50 [43] was 0.476 µM. The TGI [43] was 1.57 µM, the GI50 [44] was 0.509 µM and the TGI [44] was 1.88 µM. For the same compound, the GI50 [45] was 0.748 µM, the TGI [45] was 2.03 µM and the GI50 [46] was 0.268 µM. The TGI [46] was 1.13 µM, the GI50 [47] was 0.15 µM and the TGI [47] was 0.369 µM. The GI50 [48] was 0.313 µM, the TGI [48] was 1.46 µM and the GI50 [49] was 1.04 µM. For the same compound, the TGI [49] was 2.21 µM, the GI50 [50] was 0.275 µM and the TGI [50] was 1.2 µM. The GI50 [51] was 0.248 µM, the TGI [51] was 0.814 µM and the GI50 [52] was 0.237 µM. It also gave a TGI [52] of 1.35 µM, a GI50 [53] of 0.227 µM and a TGI [53] of 0.761 µM. The GI50 [54] was 0.441 µM, the TGI [54] was 1.62 µM and the GI50 [55] was 1.31 µM. It also gave a TGI [55] of 2.59 µM, a GI50 [56] of 0.368 µM and a TGI [56] of 1.47 µM. It also gave a GI50 [57] of 1.11 µM and a TGI [57] of 2.32 µM.
